Source: PMC3433414, “Oral Administration of the Pimelic Diphenylamide HDAC Inhibitor HDACi 4b Is Unsuitable for Chronic Inhibition of HDAC Activity in the CNS In Vivo” (PLoS ONE, 2012)

Columns and labels:
HDAC6 = biological target: T1, HDAC6 (Homo sapiens, UniProt Q9UBN7); assay: Two-step fluorogenic deacetylase assay, recombinant HDAC6; assay type: biochemical; conditions: up to 50 µM
T1 construct: full length HDAC6 (cat#50006); purchased BPS Bioscience (San Diego, CA) 50006
Text: To assess the biochemical and cellular potency of 4b and its conversion products/metabolites, we utilized the two-step fluorogenic assay which measures the HDAC-mediated catalytic conversion of synthetic acetylated lysine substrates. In brief, on deacetylation of the substrates by HDAC activity, a protease site is unmasked which allows subsequent trypsin-mediated cleavage and release of the highly flourescent AMC molecules in a subsequent step of the assay. The substrates used were Lys_Ac_AMC (Bachem I-1875) for HDAC3 and (Ac)Arg-Gly-Lys(Ac) (Bachem I-1925) for HDAC1 and HDAC2. […] However, the relatively labile and sterically more demanding trifluoracetyl group is readily hydrolyzed by the catalytically less avid Class IIa enzymes, allowing measurement of Class IIa activity using the 2-step fluorogenic assay. […]
For evaluation of the class selectivity of the compounds, we assessed inhibition against purified recombinant human full length HDAC1 (cat# 50051), HDAC2 (cat# 50052), HDAC3-NcoR2 (cat# 50003) and HDAC8 (cat# 50008): as representative of Class I activity; catalytic domain HDAC4(αα 648–1057), HDAC5 (αα 657–1123; cat # 50005), HDAC7 (αα 518-end; cat # 50007) and HDAC9 (αα 604–1066; cat # 50009) activity: representing all Class IIa activity; and full length HDAC6 (cat#50006): representing Class IIb activity. […]

[1] = Chemical stability in formulation or solution; assay type: physicochemical; conditions: free base; LC-MS day 1 and after 7 days; with or without heating
Procedure: Thomas and colleagues reported that a solution of 4b at 1 mg/mL was previously obtained using this procedure. […] We therefore prepared both TFA and hydrochloride (HCl) salts of 4b to establish whether they could offer improved solubility. Neither salt form of 4b was particularly soluble in water (<1 mg/ml). […] A study of the stability of the TFA salt also raised another more worrying issue in the use of 2-hydroxypropyl-β-cyclodextrin–complexed 4b salts for potential in vivo studies. […] The 4b. […] The lower than expected initial quantification of 4b was most likely due to the TFA salt rapidly degrading upon heating. Indeed, we always found the presence of the cyclised benzimidazole conversion product, named throughout as product C1, in the salt formulations even at t = 0 after preparation. Furthermore, the suspension was not stable upon standing in the dark with gentle shaking at room temperature, with a further 28% decrease observed in parent (4b) concentration on day 7 analysis, compared to day 1.
According to Thomas et al, verification of an acute pharmacodynamic response (the reversal of transcriptional dysregulation in the R6/2 model) was achieved by the repeated once daily injection of 150 mg/kg 4b in 50∶50 DMSO: PBS for three consecutive days. […] The lack of any pharmacodynamic response predictive of central Class I HDAC inhibition when 4b was dosed orally at 150 mg/kg twice daily for 5 days confirmed this prediction.

T1 sequence (Q9UBN7 whole entry): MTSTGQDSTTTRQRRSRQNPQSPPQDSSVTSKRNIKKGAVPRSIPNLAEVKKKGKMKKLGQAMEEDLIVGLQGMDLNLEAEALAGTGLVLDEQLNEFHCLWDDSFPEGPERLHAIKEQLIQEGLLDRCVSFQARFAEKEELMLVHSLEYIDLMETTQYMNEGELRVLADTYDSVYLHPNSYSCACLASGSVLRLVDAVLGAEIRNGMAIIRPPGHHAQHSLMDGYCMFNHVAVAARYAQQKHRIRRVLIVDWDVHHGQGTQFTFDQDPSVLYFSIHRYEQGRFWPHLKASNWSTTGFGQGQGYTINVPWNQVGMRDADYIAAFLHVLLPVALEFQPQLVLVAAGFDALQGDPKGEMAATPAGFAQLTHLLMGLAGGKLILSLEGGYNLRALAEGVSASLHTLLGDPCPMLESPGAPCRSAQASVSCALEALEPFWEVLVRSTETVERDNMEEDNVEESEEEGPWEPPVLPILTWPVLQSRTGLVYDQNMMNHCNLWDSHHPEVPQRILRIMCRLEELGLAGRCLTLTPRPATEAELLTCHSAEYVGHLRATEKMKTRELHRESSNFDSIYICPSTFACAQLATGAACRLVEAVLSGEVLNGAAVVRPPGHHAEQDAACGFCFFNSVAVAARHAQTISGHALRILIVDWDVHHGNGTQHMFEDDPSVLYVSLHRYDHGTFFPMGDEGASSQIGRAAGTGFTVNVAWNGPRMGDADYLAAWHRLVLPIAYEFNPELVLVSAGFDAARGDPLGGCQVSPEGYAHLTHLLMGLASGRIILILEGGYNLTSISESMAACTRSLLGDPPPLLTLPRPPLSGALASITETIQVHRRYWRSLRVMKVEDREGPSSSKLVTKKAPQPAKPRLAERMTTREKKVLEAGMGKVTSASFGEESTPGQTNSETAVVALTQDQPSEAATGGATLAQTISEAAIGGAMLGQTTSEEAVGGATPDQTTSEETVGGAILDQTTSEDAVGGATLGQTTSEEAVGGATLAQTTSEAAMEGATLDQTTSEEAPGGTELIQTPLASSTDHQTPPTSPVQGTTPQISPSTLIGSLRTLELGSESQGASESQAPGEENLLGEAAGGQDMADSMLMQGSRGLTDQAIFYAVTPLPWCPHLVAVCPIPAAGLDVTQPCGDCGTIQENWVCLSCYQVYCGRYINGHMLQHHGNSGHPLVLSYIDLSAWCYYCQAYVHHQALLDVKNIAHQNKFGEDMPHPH

With `Nc1ccccc1NC(=O)CCCCCC(=O)Nc1ccccc1` [Compound 4b] the “activity against HDAC6” value (HDAC6) was “No activity” and the “degradation in cyclodextrin suspension” value [1] was “no degradation”.
